Where a name gives a salt, the structure may show the parent alone.
Each molecule was assayed on alternative splicing of a specific gene (GFP/RFP reporter) (assay: Compound screen with GFP/RFP alternative splicing reporter). Details: not given.
Assay type: cell-based
Text: Strategy of a method for testing whether or not a compound to be tested affects an alternative splicing of a specific gene in a mammalian multicelluar organism is shown in FIG. 14.
The reporter proteins used for the method are GFP and FRP.

Row | Molecule | Number of cells | reporter fluorescence ratio, GFP/RFP (c11; column head not printed in these continuation tables, table sorted descending by it) | GFP/RFP (Ctrl = 1) | cell count per well (c9; column head not printed in these continuation tables, meaning inferred)
1 | C[C@]12CCC(=O)C=C1CC[C@@H]1[C@@H]2[C@@H](O)C[C@@]2(C)[C@H]1CC[C@]2(O)C(=O)CO (racemic) [Hydrocortisone] | 3105 | – | – | –
2 | CC(C)NCC(O)c1ccc(O)c(O)c1.Cl (racemic) [Isoproterenol HCl (rac)] | 3953 | – | – | –
3 | CC1(C)S[C@@H]2[C@H](NC(=O)COc3ccccc3)C(=O)N2[C@H]1C(=O)[O-].[K+] [Pencillin v potassium] | – | 1.134 | – | –
4 | O=C1[O][Pt]2([NH][C@@H]3CCCC[C@H]3[NH]2)[O]C1=O [Oxaliplatin] | – | – | 2.271 | –
5 | CN(C)CCC(c1ccc(Cl)cc1)c1ccccn1 (racemic) [Chlorpheniramine maleate] | 3724 | – | – | –
6 | Cl.O=C(O)c1cn(-c2ccc(F)cc2)c2cc(N3CCNCC3)c(F)cc2c1=O [Satafloxacin HCl] | 3105 | – | – | –
7 | NC(=O)c1ncn([C@@H]2O[C@H](CO)[C@@H](O)[C@H]2O)n1 (racemic) [Ribavirin] | 3140 | – | – | –
8 | Cc1c(Cl)cccc1Nc1ccccc1C(=O)O (racemic) [Tolfenamic acid] | 2697 | – | – | –
9 | CNC[C@H](O)c1ccc(O)c(O)c1.O=C(O)C(O)C(O)C(=O)O [Epinephrine-(+)-tartrate l (−)] | 4057 | – | – | –
10 | CCCc1nc2c(C)cc(-c3nc4ccccc4n3C)cc2n1Cc1ccc(-c2ccccc2C(=O)O)cc1 (racemic) [Telmisartan] | 3042 | – | – | –
11 | C[C@@H](O[C@H]1OCCN(Cc2n[nH]c(=O)[nH]2)[C@H]1c1ccc(F)cc1)c1cc(C(F)(F)F)cc(C(F)(F)F)c1 (racemic) [Aprepitant] | 2165 | – | – | –
12 | O=NN(CCCl)C(=O)NC1CCCCC1 (racemic) [Lomustine] | 1241 | – | – | –
13 | CCN(CC)CCCC(C)Nc1c2ccc(Cl)cc2nc2ccc(OC)cc12.Cl.Cl.O.O (centres unmarked) [Quinacrine 2HCl dihydrate] | 5 | – | – | –
14 | CO[C@@]12[C@H](COC(N)=O)C3=C(C(=O)C(C)=C(N)C3=O)N1C[C@@H]1N[C@@H]12 [Mitomycin c] | – | – | 3.767 | –
15 | CC(=O)OC[C@H]1O[C@@H]([S-])[C@H](OC(C)=O)[C@@H](OC(C)=O)[C@@H]1OC(C)=O.CCP(CC)CC.[Au+] [Auranofin] | – | – | 4.915 | –
16 | C=C1/C(=C\C=C2/CCC[C@]3(C)[C@@H]([C@H](C)CCCC(C)C)CC[C@@H]23)C[C@@H](O)C[C@@H]1O (racemic) [Alfacalcidol] | 861 | – | – | –
17 | C#C[C@]1(O)CC[C@H]2[C@@H]3CCC4=CC(=O)CC[C@@H]4[C@H]3CC[C@@]21C (racemic) [Norethindrone] | 3205 | – | – | –
18 | CCOC(=O)[C@H](CCc1ccccc1)N[C@@H](C)C(=O)N1Cc2ccccc2C[C@H]1C(=O)O (racemic) [Quinapril HCl] | 3149 | – | – | –
19 | C[C@@H]1[C@H](O)[C@@H](C)/C=C/C=C/CC/C=C/C=C/C=C/C=C/C(O[C@H]2O[C@H](C)[C@@H](O)[C@H](N)[C@@H]2O)CC2O[C@](O)(CC(O)C(O)CCC(O)CC(O)CC(O)CC(=O)O[C@H]1C)CC(O)C2C(=O)O (some centres unmarked) [Nystatin] | – | – | 1.253 | –
20 | CC1(C)C[C@@H]1C(=O)N/C(=C\CCCCSC[C@H](N)C(=O)O)C(=O)O [Cilastatin] | – | – | – | 2885
21 | NC1CCN(c2nc3c(cc2F)c(=O)c(C(=O)O)cn3-c2ccc(F)cc2F)C1 (racemic) [Tosufloxacin] | 2590 | – | – | –
22 | CC1=C(/C=C/C(C)=C/C=C/C(C)=C/C(=O)O)C(C)(C)CCC1 [Retinoic acid] | 2697 | – | – | –
23 | Bleomycin sulfate | – | – | 1.477 | –
24 | CC(=O)O[C@@]12CO[C@@H]1C[C@H](O)[C@@]1(C)C(=O)[C@H](O)C3=C(C)[C@@H](OC(=O)[C@H](O)[C@@H](NC(=O)OC(C)(C)C)c4ccccc4)C[C@@](O)([C@@H](OC(=O)c4ccccc4)[C@H]21)C3(C)C [Docetaxil] | 1194 | – | – | –

Same assay, conditions: 50 ng/mL

Row | Molecule | Number of cells
25 | CN1CCCN=C1/C=C/c1cccs1 (racemic) [Pyrantel pamoate] | 2985
26 | CC(C(=O)O)c1ccc2c(c1)Cc1cccnc1O2 (racemic) [Pranoprofen] | 3050
27 | CCCCC(C)(O)C/C=C/[C@H]1[C@H](O)CC(=O)[C@@H]1CCCCCCC(=O)OC (mixture of isomers) [Misoprostol] | 3052
28 | Nc1nc(Cl)nc2c1ncn2[C@@H]1O[C@H](CO)[C@@H](O)[C@@H]1F (racemic) [Clofarabine] | 19
29 | Cc1oncc1C(=O)Nc1ccc(C(F)(F)F)cc1 (racemic) [Leflunomide] | 1963
30 | COc1c(C)c2c(c(O)c1C/C=C(\C)CCC(=O)O)C(=O)OC2 [Mycophenolic acid] | 1367
31 | C[C@]12C=CC(=O)C=C1CC[C@@H]1[C@@H]2[C@@H](O)C[C@@]2(C)[C@H]1CC[C@]2(O)C(=O)CO (racemic) [Prednisolone] | 2900
32 | COc1cccc2c1C(=O)c1c(O)c3c(c(O)c1C2=O)C[C@@](O)(C(=O)CO)C[C@@H]3O[C@H]1C[C@H](N)[C@H](O)[C@H](C)O1 [Doxorubicin HCl] | 18
33 | COc1cc([C@@H]2c3cc4c(cc3[C@@H](O[C@@H]3O[C@@H]5CO[C@@H](C)O[C@H]5[C@H](O)[C@H]3O)[C@H]3COC(=O)[C@H]23)OCO4)cc(OC)c1O [Etoposide] | 055
34 | Clc1ccc(COC(Cn2ccnc2)c2ccc(Cl)cc2Cl)c(Cl)c1 (racemic) [Miconazole] | 808
35 | CC(C)(C)NCC(O)c1ccccc1Cl (racemic) [Tulobuterol] | 3489
36 | CC/C(=C(/CC)c1ccc(O)cc1)c1ccc(O)cc1 (racemic) [Diethylstilbestrol] | 542
37 | CC[C@@]1(O)C(=O)OCc2c1cc1n(c2=O)Cc2cc3c(CN(C)C)c(O)ccc3nc2-1 (racemic) [Topotecan] | 259
38 | COc1cc(NS(=O)(=O)c2ccc(N)cc2)nc(OC)n1 (racemic) [Sulfadimethoxine] | 3092
39 | COc1cc2nc(N3CCN(C(=O)C4CCCO4)CC3)nc(N)c2cc1OC (racemic) [Terazosin HCl] | 3112
40 | CCC(C)n1ncn(-c2ccc(N3CCN(c4ccc(OCC5COC(Cn6cncn6)(c6ccc(Cl)cc6Cl)O5)cc4)CC3)cc2)c1=O (racemic) [Itraconazole] | 344
41 | C[C@H]1C[C@@H]2[C@H]([C@@H](O)C[C@@]3(C)[C@H]2CC[C@]3(O)C(=O)CO)[C@@]2(C)C=CC(=O)C=C12 (racemic) [Methylprednisolone] | 3084
42 | O=c1[nH]c(=O)n([C@H]2C[C@H](O)[C@@H](CO)O2)cc1I (racemic) [Idoxuridine] | 1924
43 | Cc1coc2c1C(=O)C(=O)c1c-2ccc2c1CCCC2(C)C [Tanshinone iia] | 2210
44 | CN1C(C(=O)Nc2ccccn2)=C(O)c2sccc2S1(=O)=O (racemic) [Tenoxicam] | 2916
45 | O=C(NC(Cc1cc(=O)[nH]c2ccccc12)C(=O)O)c1ccc(Cl)cc1 (racemic) [Rebamipide] | 2922
46 | CN(C)CCOc1ccc(/C(=C(/CCCl)c2ccccc2)c2ccccc2)cc1 (racemic) [Toremifene] | 250
47 | N=C(N)c1ccc(OCCCCCOc2ccc(C(=N)N)cc2)cc1 [Pentamidine] | 2694
48 | Nc1ccn([C@@H]2O[C@H](CO)[C@@H](O)C2(F)F)c(=O)n1 (racemic) [Gemcitabine HCl] | 156
49 | C[C@H]1[C@H](OC(=O)CCC(=O)O)O[C@@H]2O[C@@]3(C)CC[C@H]4[C@H](C)CC[C@@H]1[C@@]24OO3 [Artesunate] | 246
50 | CCN(CC)CCOc1ccc(C(=C(Cl)c2ccccc2)c2ccccc2)cc1 (racemic) [Clomiphene citrate] | 95
51 | COc1ccc(CCN2CCC(Nc3nc4ccccc4n3Cc3ccc(F)cc3)CC2)cc1 [Astemizole] | 38
52 | N=c1ccn2c(n1)O[C@H]1[C@H](O)[C@@H](CO)O[C@H]12 (racemic) [Cyclocytidine HCl] | 73
53 | COc1cccc2c1C(=O)c1c(O)c3c(c(O)c1C2=O)C[C@@](O)(C(C)=O)C[C@@H]3O[C@H]1C[C@H](N)[C@H](O)[C@H](C)O1 [Daunorubicin HCl] | 3

Same assay, conditions: cell count after compound at final conc.; Ctrl number of cells 4303-5627

Row | Molecule | Number of cells
54 | CC(N)C(O)c1ccccc1 (racemic) [Phenylpropanolamine] | 2551
55 | O=C1[O][Pt]2([NH][C@@H]3CCCC[C@H]3[NH]2)[O]C1=O [Oxaliplatin] | 825
56 | CC(CCc1ccc(O)cc1)NCCc1ccc(O)c(O)c1 (centres unmarked) [Dobutamine HCl] | 2991
57 | COc1c(C)c2c(c(O)c1C/C=C(\C)CCC(=O)OCCN1CCOCC1)C(=O)OC2 (racemic) [Mycophenolate mofetil] | 500
58 | CO[C@@]12[C@H](COC(N)=O)C3=C(C(=O)C(C)=C(N)C3=O)N1C[C@@H]1N[C@@H]12 [Mitomycin c] | 319
59 | CC(=O)OC[C@H]1O[C@@H]([S-])[C@H](OC(C)=O)[C@@H](OC(C)=O)[C@@H]1OC(C)=O.CCP(CC)CC.[Au+] [Auranofin] | 1
60 | COc1cc(-c2ccc(=O)[nH]n2)ccc1OC(F)F [Zardaverine] | 2744
61 | COc1ccnc(C[S+]([O-])c2nc3ccc(OC(F)F)cc3[nH]2)c1OC (racemic) [Pantoprazole] | 3112
62 | C[C@@H]1[C@H](O)[C@@H](C)/C=C/C=C/CC/C=C/C=C/C=C/C=C/C(O[C@H]2O[C@H](C)[C@@H](O)[C@H](N)[C@@H]2O)CC2O[C@](O)(CC(O)C(O)CCC(O)CC(O)CC(O)CC(=O)O[C@H]1C)CC(O)C2C(=O)O (some centres unmarked) [Nystatin] | 3293
63 | COC(=O)Nc1nc2ccc([S+]([O-])c3ccccc3)cc2[nH]1 (racemic) [Oxfendazole] | 1712
64 | CC[C@@]1(O)C(=O)OCc2c1cc1n(c2=O)Cc2cc3ccccc3nc2-1 [Camptothecin] | 385
65 | Bleomycin sulfate | 2702
66 | CC[C@@]1(O)C[C@H](O[C@H]2C[C@H](N(C)C)[C@H](O[C@H]3C[C@H](O)[C@H](O[C@H]4CCC(=O)[C@H](C)O4)[C@H](C)O3)[C@H](C)O2)c2c(cc3c(c2O)C(=O)c2c(O)cccc2C3=O)[C@H]1C(=O)OC [Aclarubicin] | 10
67 | COc1ccc2c(c1)[nH]c1c(C)nccc12 [Harmine] | 537
68 | O=C(O)CCCc1ccc(N(CCCl)CCCl)cc1 (racemic) [Chlorambucil] | 841
69 | C[N+](C)(C)CCOC(=O)CCC(=O)OCC[N+](C)(C)C (racemic) [Succinylcholine] | 2727

Same assay, conditions: reporter ratio relative to control = 1; final conc. per compound (μM, 50 ng/mL)

Row | Molecule | GFP/RFP (Ctrl = 1)
70 | CC(C)NCC(O)c1ccc(O)c(O)c1.Cl (racemic) [Isoproterenol HCl (rac)] | 1.614
71 | Cl.O=C(O)c1cn(-c2ccc(F)cc2)c2cc(N3CCNCC3)c(F)cc2c1=O [Satafloxacin HCl] | 1.341
72 | CNC[C@H](O)c1ccc(O)c(O)c1.O=C(O)C(O)C(O)C(=O)O [Epinephrine-(+)-tartrate l (−)] | 1.528
73 | CCN(CC)CCCC(C)Nc1c2ccc(Cl)cc2nc2ccc(OC)cc12.Cl.Cl.O.O (centres unmarked) [Quinacrine 2HCl dihydrate] | 3.153
74 | CC(=O)O[C@@]12CO[C@@H]1C[C@H](O)[C@@]1(C)C(=O)[C@H](O)C3=C(C)[C@@H](OC(=O)[C@H](O)[C@@H](NC(=O)OC(C)(C)C)c4ccccc4)C[C@@](O)([C@@H](OC(=O)c4ccccc4)[C@H]21)C3(C)C [Docetaxil] | 1.862
